Results published in PubChem BioAssay (NCI).
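GI50 marks 50% less growth. Definition used: TGI = concentration required for complete inhibition of growth.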

Key:
Assay in all cases: DTP human tumour cell line panel, 384-well format
KM12 colon = test system: KM12 colon
SW-620 colon = test system: SW-620 colon
OVCAR-8 ovarian = test system: OVCAR-8 ovarian
EKVX NSCLC = test system: EKVX NSCLC
SF-295 CNS = test system: SF-295 CNS
HCC-2998 colon = test system: HCC-2998 colon
HOP-62 NSCLC = test system: HOP-62 NSCLC
MDA-MB-468 breast = test system: MDA-MB-468 breast
SK-OV-3 ovarian = test system: SK-OV-3 ovarian
NCI-H460 NSCLC = test system: NCI-H460 NSCLC
CCRF-CEM leukemia = test system: CCRF-CEM leukemia
NCI-H522 lung = test system: NCI-H522 lung
HCT-15 colon = test system: HCT-15 colon
MOLT-4 leukemia = test system: MOLT-4 leukemia
COLO 205 colon = test system: COLO 205 colon
LOX IMVI melanoma = test system: LOX IMVI melanoma
M14 melanoma = test system: M14 melanoma
RPMI-8226 leukemia = test system: RPMI-8226 leukemia
CAKI-1 renal = test system: CAKI-1 renal
T-47D breast = test system: T-47D breast
A549 NSCLC = test system: A549 NSCLC
SK-MEL-28 melanoma = test system: SK-MEL-28 melanoma
K-562 leukemia = test system: K-562 leukemia
SNB-19 CNS = test system: SNB-19 CNS
786-0 renal = test system: 786-0 renal
OVCAR-3 ovarian = test system: OVCAR-3 ovarian
OVCAR-4 ovarian = test system: OVCAR-4 ovarian
A498 renal = test system: A498 renal
OVCAR-5 ovarian = test system: OVCAR-5 ovarian
UACC-257 melanoma = test system: UACC-257 melanoma
SK-MEL-5 melanoma = test system: SK-MEL-5 melanoma
UACC-62 melanoma = test system: UACC-62 melanoma
HOP-92 NSCLC = test system: HOP-92 NSCLC
IGROV1 ovarian = test system: IGROV1 ovarian
MCF7 breast = test system: MCF7 breast
NCI-H226 lung = test system: NCI-H226 lung
SN12C renal = test system: SN12C renal
MDA-MB-231 breast = test system: MDA-MB-231 breast
BT-549 breast = test system: BT-549 breast
SF-539 CNS = test system: SF-539 CNS
U251 glioblastoma = test system: U251 glioblastoma
TK-10 renal = test system: TK-10 renal
HT29 colon = test system: HT29 colon
HL-60(TB) leukemia = test system: HL-60(TB) leukemia
NCI-H322M lung = test system: NCI-H322M lung
NCI/ADR-RES ovarian = test system: NCI/ADR-RES ovarian
PC-3 prostate = test system: PC-3 prostate
ACHN renal = test system: ACHN renal
NCI-H23 lung = test system: NCI-H23 lung
SNB-75 CNS = test system: SNB-75 CNS
MALME-3M melanoma = test system: MALME-3M melanoma
HCT-116 colon = test system: HCT-116 colon
MDA-MB-435 melanoma = test system: MDA-MB-435 melanoma
SF-268 CNS = test system: SF-268 CNS
UO-31 renal = test system: UO-31 renal
DU-145 prostate = test system: DU-145 prostate
RXF 393 renal = test system: RXF 393 renal
HS 578T breast = test system: HS 578T breast

Cc1nnn(C)c1-c1cnc2c3ccc(C(C)(C)O)cc3n([C@H](c3ccccc3)C3CCOCC3)c2c1
GI50 (KM12 colon): < 0.01 µM | TGI (KM12 colon): 10.8 µM | GI50 (SW-620 colon): 1.74 µM | TGI (SW-620 colon): 17.4 µM | GI50 (OVCAR-8 ovarian): < 0.01 µM | TGI (OVCAR-8 ovarian): 1.3 µM | GI50 (EKVX NSCLC): 3.19 µM | TGI (EKVX NSCLC): 21.6 µM | GI50 (SF-295 CNS): 0.38 µM | TGI (SF-295 CNS): 17 µM | GI50 (HCC-2998 colon): < 0.01 µM | TGI (HCC-2998 colon): 0.0497 µM | GI50 (HOP-62 NSCLC): < 0.01 µM | TGI (HOP-62 NSCLC): 2.77 µM | GI50 (MDA-MB-468 breast): < 0.01 µM | TGI (MDA-MB-468 breast): 1.22 µM | GI50 (SK-OV-3 ovarian): < 0.01 µM | TGI (SK-OV-3 ovarian): 1.45 µM | GI50 (NCI-H460 NSCLC): 0.354 µM | TGI (NCI-H460 NSCLC): 15.6 µM | GI50 (CCRF-CEM leukemia): < 0.01 µM | TGI (CCRF-CEM leukemia): 1.42 µM | GI50 (NCI-H522 lung): < 0.01 µM | TGI (NCI-H522 lung): 0.0106 µM | GI50 (HCT-15 colon): 0.0139 µM | TGI (HCT-15 colon): 1.32 µM | GI50 (MOLT-4 leukemia): < 0.01 µM | TGI (MOLT-4 leukemia): 0.211 µM | GI50 (COLO 205 colon): < 0.01 µM | TGI (COLO 205 colon): 0.331 µM | GI50 (LOX IMVI melanoma): < 0.01 µM | TGI (LOX IMVI melanoma): 0.0113 µM | GI50 (M14 melanoma): < 0.01 µM | TGI (M14 melanoma): 15.7 µM | GI50 (RPMI-8226 leukemia): < 0.01 µM | GI50 (CAKI-1 renal): < 0.01 µM | TGI (CAKI-1 renal): 3.96 µM | GI50 (T-47D breast): 0.0137 µM | TGI (T-47D breast): 11.1 µM | GI50 (A549 NSCLC): < 0.01 µM | TGI (A549 NSCLC): 13 µM | GI50 (SK-MEL-28 melanoma): 0.0899 µM | TGI (SK-MEL-28 melanoma): 24.2 µM | GI50 (K-562 leukemia): < 0.01 µM | TGI (K-562 leukemia): 13.8 µM | GI50 (SNB-19 CNS): 0.032 µM | TGI (SNB-19 CNS): 20.3 µM | GI50 ([…]-0 renal): 0.015 µM | TGI (786-0 renal): 11.7 µM | GI50 (OVCAR-3 ovarian): < 0.01 µM | TGI (OVCAR-3 ovarian): 1.71 µM | GI50 (OVCAR-4 ovarian): < 0.01 µM | TGI (OVCAR-4 ovarian): 0.0212 µM | GI50 (A498 renal): < 0.01 µM | TGI (A498 renal): 10.7 µM | GI50 (OVCAR-5 ovarian): < 0.01 µM | TGI (OVCAR-5 ovarian): 12.6 µM | GI50 (UACC-257 melanoma): < 0.01 µM | TGI (UACC-257 melanoma): 5.55 µM | GI50 (SK-MEL-5 melanoma): < 0.01 µM | TGI (SK-MEL-5 melanoma): 1.11 µM | GI50 (UACC-62 melanoma): < 0.01 µM | TGI (UACC-62 melanoma): 0.146 µM | GI50 (HOP-92 NSCLC): 0.0253 µM | TGI (HOP-92 NSCLC): 14.5 µM | GI50 (IGROV1 ovarian): < 0.01 µM | TGI (IGROV1 ovarian): 1.36 µM | GI50 (MCF7 breast): < 0.01 µM | TGI (MCF7 breast): 0.435 µM | GI50 (NCI-H226 lung): < 0.01 µM | TGI (NCI-H226 lung): 10.3 µM | GI50 (SN12C renal): 1.21 µM | TGI (SN12C renal): 20.6 µM | GI50 (MDA-MB-231 breast): < 0.01 µM | TGI (MDA-MB-231 breast): 11.8 µM | GI50 (BT-549 breast): < 0.01 µM | TGI (BT-549 breast): 0.0727 µM | GI50 (SF-539 CNS): 0.0103 µM | TGI (SF-539 CNS): 0.0543 µM | GI50 (U251 glioblastoma): 0.315 µM | TGI (U251 glioblastoma): 12.7 µM | GI50 (TK-10 renal): < 0.01 µM | TGI (TK-10 renal): 0.0908 µM | GI50 (HT29 colon): < 0.01 µM | TGI (HT29 colon): 15.1 µM | GI50 (HL-60(TB) leukemia): < 0.01 µM | GI50 (NCI-H322M lung): 0.019 µM | TGI (NCI-H322M lung): 17.5 µM | GI50 (NCI/ADR-RES ovarian): 0.197 µM | TGI (NCI/ADR-RES ovarian): 8.56 µM | GI50 (PC-3 prostate): < 0.01 µM | TGI (PC-3 prostate): 25 µM | GI50 (ACHN renal): 0.0445 µM | TGI (ACHN renal): 12.2 µM | GI50 (NCI-H23 lung): < 0.01 µM | TGI (NCI-H23 lung): 3.35 µM | GI50 (SNB-75 CNS): 0.299 µM | TGI (SNB-75 CNS): 14 µM | GI50 (MALME-3M melanoma): < 0.01 µM | TGI (MALME-3M melanoma): 0.268 µM | GI50 (HCT-116 colon): 0.0242 µM | TGI (HCT-116 colon): 12.8 µM | GI50 (MDA-MB-435 melanoma): 0.0431 µM | TGI (MDA-MB-435 melanoma): 61.7 µM | GI50 (SF-268 CNS): 0.0793 µM | TGI (SF-268 CNS): 16.8 µM | GI50 (UO-31 renal): 0.0132 µM | TGI (UO-31 renal): 13.4 µM | GI50 (DU-145 prostate): 0.753 µM | TGI (DU-145 prostate): 22.1 µM | GI50 (RXF 393 renal): < 0.01 µM | TGI (RXF 393 renal): 0.155 µM | GI50 (HS 578T breast): < 0.01 µM | TGI (HS 578T breast): 0.758 µM
